Results from US20180078569A1, “KITS FOR INDENTIFYING AND TREATING SUBJECTS RESISTANT TO ACETYL SALICYLIC ACID” (priority 2006, published 2018).

Tests used:
[1] = biological target: T1, MRP4-mediated transport (Homo sapiens, UniProt O15439); test: Release of 14C-labelled ASA and of ATP from thrombin-activated platelets; type: cell-based; settings: platelets pretreated with dipyridamole
T1 construct: endogenous in cells; host or cells: washed platelets (and a dense-granule suspension made from them) from donors' venous blood
T1 sequence (O15439 1-1325): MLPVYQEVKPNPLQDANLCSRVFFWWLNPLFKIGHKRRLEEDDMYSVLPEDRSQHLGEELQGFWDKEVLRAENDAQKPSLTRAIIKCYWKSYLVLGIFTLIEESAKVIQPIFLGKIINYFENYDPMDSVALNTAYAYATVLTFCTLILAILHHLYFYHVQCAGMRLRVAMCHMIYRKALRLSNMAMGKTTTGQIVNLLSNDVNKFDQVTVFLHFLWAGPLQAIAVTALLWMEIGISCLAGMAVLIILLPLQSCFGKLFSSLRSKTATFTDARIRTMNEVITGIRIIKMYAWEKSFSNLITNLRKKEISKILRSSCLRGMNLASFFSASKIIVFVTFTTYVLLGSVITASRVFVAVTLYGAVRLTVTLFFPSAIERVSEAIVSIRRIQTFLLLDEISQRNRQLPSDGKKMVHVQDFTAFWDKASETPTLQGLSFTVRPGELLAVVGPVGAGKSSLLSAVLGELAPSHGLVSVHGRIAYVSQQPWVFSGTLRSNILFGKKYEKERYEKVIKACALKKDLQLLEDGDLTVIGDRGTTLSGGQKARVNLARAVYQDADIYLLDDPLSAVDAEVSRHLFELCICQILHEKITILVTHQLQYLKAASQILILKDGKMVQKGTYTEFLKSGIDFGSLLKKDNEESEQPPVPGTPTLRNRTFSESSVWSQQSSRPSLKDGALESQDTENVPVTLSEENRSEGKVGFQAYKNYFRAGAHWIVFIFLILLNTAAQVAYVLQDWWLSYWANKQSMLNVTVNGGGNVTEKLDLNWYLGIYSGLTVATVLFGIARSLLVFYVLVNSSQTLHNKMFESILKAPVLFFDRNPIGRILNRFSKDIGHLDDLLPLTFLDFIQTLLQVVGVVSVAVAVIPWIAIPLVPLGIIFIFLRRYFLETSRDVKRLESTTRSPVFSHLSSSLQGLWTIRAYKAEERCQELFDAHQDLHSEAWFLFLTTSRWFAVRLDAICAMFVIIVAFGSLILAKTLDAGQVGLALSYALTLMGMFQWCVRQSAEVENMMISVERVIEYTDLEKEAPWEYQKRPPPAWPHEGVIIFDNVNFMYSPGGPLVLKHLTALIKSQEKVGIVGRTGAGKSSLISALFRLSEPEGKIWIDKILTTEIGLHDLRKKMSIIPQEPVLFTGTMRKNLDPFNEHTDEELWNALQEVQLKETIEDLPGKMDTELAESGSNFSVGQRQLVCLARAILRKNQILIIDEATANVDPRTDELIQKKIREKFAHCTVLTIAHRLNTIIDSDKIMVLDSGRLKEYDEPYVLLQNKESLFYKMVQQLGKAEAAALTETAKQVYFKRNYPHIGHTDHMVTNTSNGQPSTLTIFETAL
Procedure: Aspirin labelled with 14C (American Radiolabeled Chemicals, Inc. Saint Louis, USA) was added to the platelet suspension for 15 min at 37° C. After removing the excess of the substance marked by double centrifugation, the platelets were activated with Thrombin (0.2 U/ml) and then centrifugated. The reduction of the transport mediated by MRP4 was made through the preincubation of the platelet preparation with Dipyridamole 30 min before aspirin addition. The results are reported by evaluating the percentage of the radioactive present in the supernatant compared to the total radioactivity of the platelet preparation. ATP secretion was analyzed as a control through the luminometric method with commercial kit (Chronolog, Hevertown, Pa., USA).

[2] = biological target: T1, MRP4-mediated transport; test: Cytosolic concentrations of ASA and salicylic acid in platelets incubated with ASA (HPLC); type: cell-based; settings: for cytosolic concentration of acetylsalicylic acid (ASA) / cytosolic concentration of metabolite salicylic acid: platelets pretreated with inhibitor (dipyridamole 100 microM) 10 minutes before ASA 50 microM, compared to platelets treated with solvent alone (DMSO)
Excerpt: (§1) 1987, 9, 243-7) and a beta-counter for measuring the radioactive aspirin.
Dipyridamole, in addition to inhibiting the transport mediated by these channels, is also an inhibitor of platelet activity, in that it increases the platelet concentrations of AMPc, inhibiting phosphodiesterase isoform V (PDE typeV).
(§2) The PRP was then subjected to platelet count through blood cell count Celltac Auto Nihon Kohden (MEK 8118K). The platelets were then moved away from plasma through centrifugation of PRP, acidified at pH 6.5 with ACD (citric acid, sodium citrate and glucose 1/10 v/v), at 800×g for 10 min. and resuspended in Tyrode's buffer (CaCl2 0.20 g/L, KCl 0.20 g/L, […], NaCl 8.00 g/L, NaH2PO4*H2O), at pH 7.35 and charged with glucose and albumin. The preparation of a dense rich platelet granule suspension was made according to the method reported by (Fukami M H et al. J. Cell. Biol. 1978, 77, 389-99) and the degree of purity was verified through mepacrine Fluorimetric probe and the purity percentage was checked through the cytofluorimeter. If the concentration of the dense granules compared to the other organelles was lower than 80%, the suspension of platelet granules was not used for the study.
The resuspended platelets in the Tyrode's buffer at the concentration of 2.5×10^8 cells/ml were treated with aspirin (50 microM) at 10° C. for 15 min and then kept at 37° C. or at 4° C. for 15 min. […]
(§3) The entrapment of aspirin inside platelets or in the dense granules was measured through the method of Gaspari and Locatelli (Ther Drug Monit. 1987, 9, 243-7).

[3] = biological target: T2, COX-1 (Homo sapiens, UniProt P23219); test: Thrombin-induced thromboxane production in platelets from bypass patients treated in vitro; type: cell-based; settings: for thromboxane production induced by thrombin: platelets from patients subjected to aorto-coronary bypass, treated in vitro
T2 construct: prostaglandin H synthase, an enzyme present in platelets and commonly defined as COX-1; endogenous in cells; host or cells: washed platelets from donors' venous blood (healthy volunteers; patients 5 days after aorto-coronary bypass)
T2 sequence (P23219 24-599): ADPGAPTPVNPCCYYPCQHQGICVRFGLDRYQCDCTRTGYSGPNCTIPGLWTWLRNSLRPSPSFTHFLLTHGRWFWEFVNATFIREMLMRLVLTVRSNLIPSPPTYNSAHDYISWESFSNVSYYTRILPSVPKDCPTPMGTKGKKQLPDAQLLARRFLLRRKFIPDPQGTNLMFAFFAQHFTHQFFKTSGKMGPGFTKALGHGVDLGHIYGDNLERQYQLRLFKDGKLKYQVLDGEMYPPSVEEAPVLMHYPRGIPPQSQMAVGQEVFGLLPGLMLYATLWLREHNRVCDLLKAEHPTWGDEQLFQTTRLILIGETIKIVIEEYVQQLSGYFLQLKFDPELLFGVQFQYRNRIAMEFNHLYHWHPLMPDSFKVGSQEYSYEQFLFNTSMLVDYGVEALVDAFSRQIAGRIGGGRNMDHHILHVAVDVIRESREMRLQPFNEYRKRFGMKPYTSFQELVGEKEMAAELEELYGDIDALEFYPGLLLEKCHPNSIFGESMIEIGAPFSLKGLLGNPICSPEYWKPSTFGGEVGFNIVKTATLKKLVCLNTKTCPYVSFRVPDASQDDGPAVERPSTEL
Procedure: patients at 5 days from an aortic-coronary-bypass.
(§4) The evaluation of the biologic efficacy of aspirin in platelets was made by studying Thromboxane A2 production, a specific marker of the cyclooxygenase pathway in platelets. Aspirin and/or Dipyridamole treated platelets (see above) were activated with thrombin 1 U/ml for 1 h at 37° C., and then centrifugated 1 min at 8.000 g. Thromboxane B2, a stable metabolite of TXA2, was measured in the supernatant through a commercial ELISA kit (Cayman, chemicals Co).

[4] = biological target: T2, COX-1; test: Thrombin-induced thromboxane production of aspirinated platelets (TxB2 ELISA); type: cell-based; settings: for thrombin-induced production of thromboxane: aspirinated platelets, with or without inhibitor added prior to ASA; for reduction of thromboxane production: inhibitor added prior to ASA, versus aspirinated platelets not pretreated
Procedure: The resuspended platelets in the Tyrode's buffer at the concentration of 2.5×10^8 cells/ml were treated with aspirin (50 microM) at 10° C. for 15 min and then kept at 37° C. or at 4° C. for 15 min.
MRP4 inhibitors were used such as Dipyridamole and MK571 ((E)-3-[[[3-[2-(7-chloro-2-quinolinyl)ethenyl]phenyl]-[[3-dimethylamino)-3-oxo-propyl]-thio]-methyl]thio]-propanoic acid), both at 100 microM and incubated 30 min at RT before aspirin addition.
as §4

[5] = biological target: T1, MRP4-mediated transport; test: ASA concentration in platelet dense granule preparation treated with ASA and ATP; type: cell-based
Procedure: as §1, §2
In the rich platelet dense granule suspension, ATP and ASA were added to the preparation, then it was kept at 37° C. for 15 min so a to reduce the transpost mediated by MRP4; the suspension was pretreated either with apyrase, an ATP scavenger substance or with Dipyridamole 30 min before adding aspirin, or the treatment with aspirin was made at 4° C.
as §3

[6] = tested on: cardiovascular complications; settings: daily intake 75-150 mg/day, patients who previously had coronary disease; cited from earlier work
[7] = oral administration; cited from earlier work
[8] = pretreatment before ASA, relative to maximum obtained with ATP in external medium at 37° C.
[9] = treatment of platelets with ASA at 4° C. instead of 37° C.

Molecule	cytosolic concentration of acetylsalicylic acid (ASA) [2] [%]	cytosolic concentration of metabolite salicylic acid [2] [%]	thrombin-induced production of thromboxane [4] [ng/10^8 cells]	reduction of thromboxane production [4] [%]	ASA concentration in platelet granules [5, 8] [%]	thromboxane production induced by thrombin [3] [ng/10^8 cells]	also measured
CC(=O)Oc1ccccc1C(=O)O [ASA, acetylsalicylic acid]	–	–	343.7	–	–	1437.0±549.1	reduction of the risk of cardiovascular complications (myocardial infarction, cerebral infarction and vascular death) [6]: 25%; increase of cytosolic concentration of ASA [2, 9]: 240%; increase of cytosolic concentration of salicylate [2, 9]: 160%; bioavailability [7]: 40-50%; half-life [7]: 15 to 20 min; plasma concentration peak registered after [7]: 30 to 40 min; platelet inhibition manifested after administration [7]: one; ASA concentration in platelet granules ([5]; incubation of ASA at 4° C., relative to maximum obtained with ATP at 37° C.): 53.6%
CN(C)C(=O)CCSC(SCCC(=O)O)c1cccc(/C=C/c2ccc3ccc(Cl)cc3n2)c1 (centres unmarked) [MK-571]	208	202	140.22	59.2	–	–	–
Clc1cccc(Nc2nnc(-c3ccccc3)c3ccccc23)c1 [MY-5445, 1-(3-chlorophenylamino)-4-phenylphthalazine]	110	120	–	–	–	–	–

Now from value to molecule, other results behind:

cytosolic concentration of acetylsalicylic acid (ASA) [2] [%]	cytosolic concentration of metabolite salicylic acid [2] [%]	thrombin-induced production of thromboxane [4] [ng/10^8 cells]	reduction of thromboxane production [4] [%]	ASA concentration in platelet granules [5, 8] [%]	Molecule	thromboxane production induced by thrombin [3] [ng/10^8 cells]	also measured
285	293	142.7	58	41.7	OCCN(CCO)c1nc(N2CCCCC2)c2nc(N(CCO)CCO)nc(N3CCCCC3)c2n1 [dipyridamole, 2,6-bis-(diethanolamino)-4,8-dipiperidino-(5,4-d)-pyrimidine]	499.8±247.7	release of radiolabelled ASA after activation with thrombin ([1]; thrombin 0.2 U/ml): absent; ATP released by the platelets ([1]; thrombin-activated): 1.8 ± 0.3 nmol; thromboxane production with respect to platelets treated with aspirin alone ([3]; platelets from bypass patients pretreated in vitro before aspirin): 35%
–	–	–	–	56.1	apyrase	–	–
